In patent US9932325B2 (Denali Therapeutics Inc., priority 2015, dated 2018) one finds IC50 data, which are given here for 60 compounds.

This assay deals with LRRK2 G2019S enzyme (Homo sapiens (Human), UniProt Q5S007, G2019S). The assay can be described thus: LRRK2 G2019S TR-FRET biochemical assay (LRRKtide substrate). Conditions: 134 μM ATP. The protocol: Detection Reaction Conditions • 1× TR-FRET dilution buffer • 10 mM EDTA • 2 nM antibody • 23° C. reaction temperature • 10 μL total reaction volume
Chain of LRRK2 G2019S enzyme (Q5S007 whole entry G2019S): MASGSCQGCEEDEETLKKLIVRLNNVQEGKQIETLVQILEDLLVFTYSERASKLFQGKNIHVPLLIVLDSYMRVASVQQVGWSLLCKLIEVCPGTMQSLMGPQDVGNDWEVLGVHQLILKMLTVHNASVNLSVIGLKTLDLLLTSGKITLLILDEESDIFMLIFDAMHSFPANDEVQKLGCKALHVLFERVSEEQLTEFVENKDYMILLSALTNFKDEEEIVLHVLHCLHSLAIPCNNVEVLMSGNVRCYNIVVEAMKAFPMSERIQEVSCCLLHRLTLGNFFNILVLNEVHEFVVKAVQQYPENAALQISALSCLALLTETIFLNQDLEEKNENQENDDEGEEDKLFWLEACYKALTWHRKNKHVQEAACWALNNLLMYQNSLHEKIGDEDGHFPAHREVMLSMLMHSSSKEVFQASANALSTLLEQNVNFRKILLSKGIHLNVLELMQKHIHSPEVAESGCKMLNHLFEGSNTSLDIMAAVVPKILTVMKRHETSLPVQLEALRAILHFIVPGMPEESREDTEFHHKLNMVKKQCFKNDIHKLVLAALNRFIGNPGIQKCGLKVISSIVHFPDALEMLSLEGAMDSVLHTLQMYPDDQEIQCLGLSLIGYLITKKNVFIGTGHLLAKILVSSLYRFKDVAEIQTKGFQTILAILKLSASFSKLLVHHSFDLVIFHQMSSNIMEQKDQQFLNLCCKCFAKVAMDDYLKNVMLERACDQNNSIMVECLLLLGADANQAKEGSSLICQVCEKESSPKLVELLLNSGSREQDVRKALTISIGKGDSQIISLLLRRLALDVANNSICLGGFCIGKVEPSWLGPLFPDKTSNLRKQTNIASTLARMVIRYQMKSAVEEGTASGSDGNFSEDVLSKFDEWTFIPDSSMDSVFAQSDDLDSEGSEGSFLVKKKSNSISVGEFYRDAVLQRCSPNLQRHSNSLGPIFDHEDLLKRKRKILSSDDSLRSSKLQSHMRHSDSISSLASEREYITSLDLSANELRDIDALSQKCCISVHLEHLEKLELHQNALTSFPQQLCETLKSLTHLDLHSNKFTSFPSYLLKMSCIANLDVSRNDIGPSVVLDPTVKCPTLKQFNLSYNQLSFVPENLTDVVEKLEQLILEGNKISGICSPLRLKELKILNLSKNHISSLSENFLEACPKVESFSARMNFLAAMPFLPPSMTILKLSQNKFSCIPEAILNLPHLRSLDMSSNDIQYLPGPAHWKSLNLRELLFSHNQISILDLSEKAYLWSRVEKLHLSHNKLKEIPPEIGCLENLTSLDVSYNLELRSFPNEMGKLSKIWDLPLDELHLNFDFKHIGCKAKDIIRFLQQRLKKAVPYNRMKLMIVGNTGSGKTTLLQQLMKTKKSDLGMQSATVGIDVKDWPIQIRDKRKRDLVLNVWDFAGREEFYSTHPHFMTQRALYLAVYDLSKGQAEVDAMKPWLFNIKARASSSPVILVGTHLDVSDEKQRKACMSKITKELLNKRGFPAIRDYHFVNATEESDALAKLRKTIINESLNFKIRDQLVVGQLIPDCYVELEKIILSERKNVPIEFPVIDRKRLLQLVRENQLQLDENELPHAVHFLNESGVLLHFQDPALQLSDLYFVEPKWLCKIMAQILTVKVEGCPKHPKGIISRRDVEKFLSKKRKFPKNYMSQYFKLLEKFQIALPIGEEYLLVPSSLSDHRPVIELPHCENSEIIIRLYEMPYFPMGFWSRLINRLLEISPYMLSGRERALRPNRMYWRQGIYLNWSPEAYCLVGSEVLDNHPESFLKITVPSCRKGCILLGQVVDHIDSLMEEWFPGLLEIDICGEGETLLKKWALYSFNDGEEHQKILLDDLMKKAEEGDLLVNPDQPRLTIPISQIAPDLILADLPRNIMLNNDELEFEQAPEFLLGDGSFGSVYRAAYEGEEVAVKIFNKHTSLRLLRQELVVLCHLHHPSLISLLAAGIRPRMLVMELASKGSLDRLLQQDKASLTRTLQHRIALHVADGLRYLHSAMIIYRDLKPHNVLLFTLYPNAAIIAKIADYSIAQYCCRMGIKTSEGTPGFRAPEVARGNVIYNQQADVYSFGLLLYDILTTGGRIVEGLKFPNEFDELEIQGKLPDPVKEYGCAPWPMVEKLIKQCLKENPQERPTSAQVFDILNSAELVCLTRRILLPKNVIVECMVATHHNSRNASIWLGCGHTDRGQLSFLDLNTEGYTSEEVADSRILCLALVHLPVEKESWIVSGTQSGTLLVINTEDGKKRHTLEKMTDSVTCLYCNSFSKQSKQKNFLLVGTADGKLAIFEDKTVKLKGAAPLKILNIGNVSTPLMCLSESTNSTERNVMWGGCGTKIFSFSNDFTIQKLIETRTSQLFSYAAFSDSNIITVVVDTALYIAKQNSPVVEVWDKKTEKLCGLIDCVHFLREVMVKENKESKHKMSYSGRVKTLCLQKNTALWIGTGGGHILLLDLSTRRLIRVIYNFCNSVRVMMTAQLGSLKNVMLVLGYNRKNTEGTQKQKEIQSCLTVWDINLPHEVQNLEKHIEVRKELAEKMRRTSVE
Compounds were prepared by initially diluting to 1 mM with DMSO. 35 μL of reference compound solution, 35 μL of test compound solution, and 35 μL HPE were successively added to the source plate (384-well assay plate, Labcyte). The plates were centrifuged at 2500 rpm for 1 minute and sealed in foil. […] The assay plate was centrifuged at 2500 rpm for 1 minute, and sealed with foil.
To perform the enzyme reaction, 5 μL of LRRKtide substrate and kinase mixture in assay buffer was added to all wells of the assay plate. The plate was centrifuged to concentrate the mixture at the bottom of the wells. The assay plate was incubated at 23° C. for 20 minutes. Following incubation, 5 μL of 2× ATP in assay buffer was added to each well, and plates were centrifuged to concentrate the mixture at the bottom of the wells. The plate was incubated at 23° C. for 60 minutes.
To perform the detection of the reaction, EDTA completely mixed in TR-FRET dilution buffer was added to antibody reagent. 10 μL of detection reagent was added to all wells of each well of the assay plate and the plate was centrifuged to concentrate the mixture at the bottom of the wells. The plate was then incubated at 23° C. for 60 minutes.

Molecules are shown by their SMILES. Where only a bound is given, the exact number is not on record here.

Consider `CNc1nc(Nc2cnn(C3CN(C4COC4)CCC3(F)F)c2Cl)ncc1C(F)(F)F` (single isomer, unassigned) [Compound 29], for which the IC50 is below 30 nM.

In the case of `CCNc1nc(Nc2cc(-c3ncoc3C)nn2C2CC2)ncc1C(F)(F)F` [Compound 142], the concentration for half-maximal inhibition (IC50) is below 30 nM.

`CCNc1nc(Nc2cn(C3CC3)nc2[C@H]2C[C@H](n3nccn3)C2)ncc1C(F)(F)F` [Compound 196] yielded an IC50 below 30 nM.

Take `CCN1CCC(F)(F)C(n2ncc(Nc3ncc(C(F)(F)F)c(NC)n3)c2Cl)C1` (single isomer, unassigned) [Compound 203]: the IC50 was below 30 nM.

Compound `CCNc1nc(Nc2cc(CN3CCCC3=O)nn2C2CC2)ncc1C(F)(F)F` [Compound 149] displayed a concentration for half-maximal inhibition (IC50) of 30 to 60 nM.

Regarding `Cc1nn(C(C)(C)C#N)cc1Nc1ncc(C(F)(F)F)c(N[C@H]2C[C@H]2F)n1` [Compound 39A], the IC50 was below 30 nM.

Consider `[2H]C([2H])([2H])n1nc(C(C)(C)n2cccn2)cc1Nc1ncc(C(F)(F)F)c(NC2CC2)n1` [Compound 71], for which the IC50 was below 30 nM.

The compound `CNc1nc(Nc2cnn(CC34CC(C#N)(C3)C4)c2C)ncc1C(F)(F)F` [Compound 7] gave an IC50 below 30 nM.

Compound `CCNc1nc(Nc2ccnn2[C@H]2C[C@H](C#N)C2)ncc1C(F)(F)F` [Compound 181, (1R,3R)-3-(5-((4-(ethylamino)-5-(trifluoromethyl)pyrimidin-2-yl)amino)-1H-pyrazol-1-yl)cyclobutanecarbonitrile] returned an IC50 below 30 nM.

Compound `CNc1nc(Nc2cnn(C3C[C@@H]4[C@H](C3)C4(F)F)c2Cl)ncc1C(F)(F)F` (stereo partly drawn) [Compound 9] gave an IC50 below 30 nM.

Consider `CNc1nc(Nc2cn(C(C)(C)c3ncn(C)n3)nc2C)ncc1C(F)(F)F` [Compound 14], for which the IC50 was below 30 nM.

With `CCNc1nc(Nc2cc(C(C)(C)n3nccn3)nn2CC)ncc1C(F)(F)F` [Compound 129], the IC50 was below 30 nM.

Compound `CCN1CCC(F)(F)C(n2ncc(Nc3ncc(C(F)(F)F)c(NC)n3)c2Cl)C1` (single isomer, unassigned) [Compound 202] showed an IC50 below 30 nM.

In turn, `COc1nc(Nc2cnn(C3(C)CCNC3=O)c2C)ncc1Br` (stereo not drawn) [Compound 65] had an IC50 below 30 nM.

As for `CCNc1nc(Nc2cc(C3(C)CCC(=O)N3)nn2C2CC2)ncc1C(F)(F)F` (stereo not drawn) [Compound 136], the IC50 was 30 to 60 nM.

For the compound `CCNc1nc(Nc2cnn([C@H]3C[C@@H](N4CCN(CC(F)F)CC4)C3)c2C)ncc1C(F)(F)F` [Compound 106], the IC50 was below 30 nM.

`CCNc1nc(Nc2cnn(C3CNCCC3(F)F)c2C)ncc1C(F)(F)F` (single isomer, unassigned) [Compound 201] gave an IC50 below 30 nM.

`Cc1nn(C(C)(C)C#N)cc1Nc1ncc(C(F)(F)F)c(NC2(C)CC2)n1` [Compound 84] showed an IC50 below 30 nM.

`CCNc1nc(Nc2cnn([C@H]3C[C@@H](n4nccn4)C3)c2C2CC2)ncc1C(F)(F)F` [Compound 101] displayed an IC50 below 30 nM.

For the compound `CNc1nc(Nc2cnn(C3C[C@@H]4[C@H](C3)C4(F)F)c2C)ncc1C(F)(F)F` (stereo partly drawn) [Compound 11], the IC50 is below 30 nM.

With `CNc1nc(Nc2cnn3c2OCC2(CC2)C3)ncc1C(F)(F)F` [Compound 17], the IC50 is below 30 nM.

`CCNc1nc(Nc2cn(S(C)(=O)=O)nc2C2CC2)ncc1C(F)(F)F` [Compound 112] had an IC50 below 30 nM.

With `CCNc1nc(Nc2cnn(C3CCC3)c2C#N)ncc1C(F)(F)F` [Compound 32], the IC50 is below 30 nM.

`CCNc1nc(Nc2cc(S(C)(=O)=O)nn2C2CC2)ncc1C(F)(F)F` [Compound 132] gave an IC50 below 30 nM.

Compound `Cc1nn(C(C)(C)C#N)cc1Nc1nc2c(c(C3CC3)n1)C1(CC1)CN2` [Compound 19] yielded an IC50 below 30 nM.

In turn, `CCNc1nc(Nc2cc(C(C)(C)S(C)(=O)=O)nn2C2CC2)ncc1Br` [Compound 140] came in with a 50% inhibitory concentration (IC50) below 30 nM.

Consider `CNc1nc(Nc2cn(C3CC4CCC(C3)N4C)nc2C)ncc1C(F)(F)F` (stereo not drawn) [Compound 2], for which the concentration for half-maximal inhibition (IC50) is above 60 nM.

`CCNc1nc(Nc2cc(C3(C)COC3)nn2C2CC2)ncc1C(F)(F)F` [Compound 145] gave a half-inhibitory concentration (IC50) below 30 nM.

Regarding `COc1nc(Nc2cn(C3(C)CCOC3=O)nc2C)ncc1Br` (single isomer, unassigned) [Compound 102], the IC50 was below 30 nM.

Take `Cc1nn(C(C)(C)C#N)cc1Nc1ncc(C(F)(F)F)c(NC2CC2)n1` [Compound 38]: the IC50 is below 30 nM.

In turn, `CCNc1nc(Nc2cc(C(C)(C)n3nccn3)nn2C(C)C)ncc1C(F)(F)F` [Compound 86] registered an IC50 below 30 nM.

Turning to `CCNc1nc(Nc2cc([C@H]3C[C@H]3C(=O)OCC)nn2C2CC2)ncc1C(F)(F)F` [Compound 169], the IC50 was below 30 nM.

`CNc1nc(Nc2cc(C3(C)CCn4ccnc43)nn2C2CC2)ncc1C(F)(F)F` (stereo not drawn) [Compound 177]: the IC50 is above 60 nM.

The compound `CCNc1nc(Nc2cnn(C3CCCN(CC(F)F)C3)c2C)ncc1C(F)(F)F` (single isomer, unassigned) [Compound 92] came in with an IC50 below 30 nM.

`[2H]C([2H])([2H])n1nc(C2(C)CCCO2)cc1Nc1ncc(C(F)(F)F)c(NCC)n1` (stereo not drawn) [Compound 186] displayed an IC50 below 30 nM.

Regarding `CCNc1nc(Nc2cc(C(C)n3nccn3)nn2C2CC2)ncc1Br` (stereo not drawn) [Compound 146], the IC50 was below 30 nM.

In turn, `CNc1nc(Nc2cn(C3C[C@@H]3C#N)nc2C2CC2)ncc1C(F)(F)F` (single isomer, unassigned) [Compound 208] yielded an IC50 below 30 nM.

In turn, `CCNc1nc(Nc2cnn3c2CC(F)C3)ncc1C(F)(F)F` (stereo not drawn) [Compound 50] gave an IC50 below 30 nM.

`CNc1nc(Nc2cn(C3(C)CCOC3=O)nc2Cl)ncc1C(F)(F)F` (single isomer, unassigned) [Compound 99] gave a half-maximal inhibitory concentration (IC50) below 30 nM.

With `CCNc1nc(Nc2cc(N3CCCC3=O)nn2C2CC2)ncc1Br` [Compound 158], the 50% inhibitory concentration (IC50) is below 30 nM.

`[2H]C([2H])([2H])c1nn(C(C#N)(C([2H])([2H])[2H])C([2H])([2H])[2H])cc1Nc1ncc(C(F)(F)F)c(NC2CC2)n1` [Compound 48] gave an IC50 below 30 nM.

With `[2H]C([2H])([2H])c1nn(C(C#N)(C([2H])([2H])[2H])C([2H])([2H])[2H])cc1Nc1ncc(C(F)(F)F)c(NC)n1` [Compound 45], the IC50 is below 30 nM.

Turning to `Cc1nn(C2(C)CCOC2=O)cc1Nc1ncc(C(F)(F)F)c(C2CC2)n1` (single isomer, unassigned) [Compound 103], the 50% inhibitory concentration (IC50) is below 30 nM.

Compound `[2H]C([2H])([2H])N1CCC(n2cc(Nc3ncc(C(F)(F)F)c(NCC)n3)c(C)n2)(C([2H])([2H])[2H])C1=O` (single isomer, unassigned) [Compound 24] showed an IC50 below 30 nM.

Compound `[2H]C([2H])([2H])c1nn(C(C#N)(C([2H])([2H])[2H])C([2H])([2H])[2H])cc1Nc1ncc(C(F)(F)F)c(NCC)n1` [Compound 44] showed an IC50 below 30 nM.

Regarding `CCNc1nc(Nc2cn(C3(CF)CCOC3=O)nc2C)ncc1C(F)(F)F` (single isomer, unassigned) [Compound 216], the IC50 was below 30 nM.

`CCNc1nc(Nc2cc(C(C)(C)n3nccn3)nn2C2CCC2)ncc1C(F)(F)F` [Compound 127] came in with an IC50 below 30 nM.

For `CCNc1nc(Nc2cc([C@@]34C[C@@H]3COC4=O)nn2C2CC2)ncc1C(F)(F)F` [Compound 162, (1R,5S)-1-[1-cyclopropyl-5-[[4-(ethylamino)-5-(trifluoromethyl)pyrimidin-2-yl]amino]pyrazol-3-yl]-3-oxabicyclo[3.1.0]hexan-2-one], the IC50 was below 30 nM.

In turn, `COc1nc(Nc2cn(C3(C)CCNC3=O)nc2C)ncc1Br` (single isomer, unassigned) [Compound 64B] came in with an IC50 below 30 nM.

Consider `CCNc1nc(Nc2cnn3c2CC(n2nccn2)C3)ncc1C(F)(F)F` (single isomer, unassigned) [Compound 54B], for which the IC50 was below 30 nM.

`CCNc1nc(Nc2cnn(C3CC(N4CCN(CC(F)F)CC4)C3)c2C)ncc1C(F)(F)F` (stereo not drawn) [Compound 121] gave an IC50 below 30 nM.

In turn, `CCNc1nc(Nc2cc([C@H]3C[C@H]3C(N)=O)nn2C2CC2)ncc1C(F)(F)F` [Compound 170] showed an IC50 below 30 nM.

In the case of `CCNc1nc(Nc2cn(C3CC3)nc2[C@H]2C[C@@H](n3nccn3)C2)ncc1C(F)(F)F` [Compound 197], the IC50 is below 30 nM.

As for `CCNc1nc(Nc2cn(C3C[C@H]3C#N)nc2Cl)ncc1C(F)(F)F` (single isomer, unassigned) [Compound 207], the IC50 is below 30 nM.

For the compound `CNc1nc(Nc2cn(C3(C)CCOC3=O)nc2Cl)ncc1C(F)(F)F` (single isomer, unassigned) [Compound 123], the IC50 was below 30 nM.

Take `Cc1nn(C(C)(C)C#N)cc1Nc1ncc(Cl)c(OC2CC2)n1` [Compound 60]: the IC50 is below 30 nM.

Regarding `CCNc1nc(Nc2cnn(C3CNCCC3(F)F)c2C)ncc1C(F)(F)F` (single isomer, unassigned) [Compound 200], the IC50 is below 30 nM.

In the case of `CNc1nc(Nc2cn(C3C[C@H]3C#N)nc2C2CC2)ncc1C(F)(F)F` (single isomer, unassigned) [Compound 209], the IC50 is below 30 nM.

Consider `CCNc1nc(Nc2cc([C@H]3C[C@H]3C#N)nn2C2CC2)ncc1C(F)(F)F` [Compound 164], for which the IC50 is below 30 nM.

In turn, `CCNc1nc(Nc2cc(N3CCCS3(=O)=O)nn2C2CC2)ncc1C(F)(F)F` [Compound 154] gave an IC50 below 30 nM.

In general, IC50 refers to the concentration that gives 50% inhibition. The low end stands for greater potency in that assay, the high end for weaker potency in that assay.
